# Measurements published in US12214036B2, “Combination therapy comprising AXL/MER and PD-1/PD-L1 inhibitors” (Incyte Corporation, priority 2020, dated 2025).
# Assays:
# [1] = tested on: BAF3 cells expressing AXL; test: BAF3-AXL cell proliferation assay (CellTiter-Glo); format: cell-based; conditions: Mus musculus, 48 hours, 2% FBS
# Text: To evaluate the cellular potency and selectivity within the TAM receptor family, mouse BAF3 cell lines with stable expression of AXL, MER, or TYRO3 were generated.
# The cytoplasmic domain of AXL, MER, or TYRO3 fused with dimerization sequence and HA tag was cloned into a pMSCV (murine stem cell virus) vector with a puromycin-resistance marker to generate three constructs individually by electroporation into BAF3 cells. Single clones that were IL-3-independent and puromycin-resistant were selected and characterized. To evaluate effects on BAF3 cell proliferation, 1000 cells/well of BAF3, BAF3-AXL, BAF3 MER, or BAF3-TYRO3 cells were treated in the presence or absence of Compound 1 at various concentrations (10 concentration points with a three-fold dilution factor from the highest concentration of 10 μM) diluted in RPMI-1640 with 2% FBS for 48 hours in a 384-well plate. Cell viability was measured by ATP assay (CellTiter-Glo Assay, Promega, Madison, Wis.) according to the manufacturer's procedure. The data were converted to percent inhibition relative to DMSO control, and IC50 curves were fitted using GraphPad Prism software.
# CTG-2041 tumors = test: Sarcoma PDX model CTG-2041 (angiosarcoma); format: in vivo, athymic nude mice
# Method: Macrophages were allowed to thaw on ice before being lysed with 250 μL/well of 1× Lysis Buffer (Cell Signaling Technology; #9803) and Halt protease and phosphatase inhibitors (ThermoFisher Scientific) for 1 hour at 4° C. The lysed cells were scraped and transferred to an Eppendorf vial on ice. The lysates were centrifuged at 12,700 rpm for 15 minutes at 4° C. PDX tumors were weighed and homogenized with lysis buffer supplemented with protease and phosphatase inhibitor cocktails (Roche, Basel, Switzerland; #11836170001). Tumors were lysed on ice for 30 minutes, followed by centrifugation at 13,000 rpm for 10 minutes. Protein lysates were quantified using BCA Protein Assay Kit (Pierce, ThermoFisher Scientific; #23225). Lysates were transferred to a new tube together with 6× Laemmli SDS sample buffer (Alfa Aesar, Haverhill, Mass.) and the samples were heated for 6 minutes at 95° C. Approximately 50 μg of protein sample was loaded per well using Novex™ 8-16% Tris-Glycine Mini Gels or 4-12% Tris-Glycine Novex WedgeGels (Invitrogen, Carlsbad, Calif.). The proteins were transferred to a nitrocellulose membrane using an iBlot (ThermoFisher Scientific) dry blotting system. The membranes were blocked with 0.5% nonfat dry milk in wash buffer (100 mM NaCl, 10 mM Tris-HCl, pH 8.0, 0.1% Tween 20) for 1 hour at room temperature. The primary antibody used for pMER was from PhosphoSolutions (Aurora, Colo.; #p186-749). The remaining antibodies were obtained from Cell Signaling Technology: MER (#4319), pAXL (#5724), AXL, (#4566), GAS6 (#67202), pAKT (#4060), AKT (#9272), and β-Actin (#4970). Primary antibodies were added at 1:500 and 1:1000, respectively, in 0.5% milk/wash buffer and rocked overnight at 4° C. The membranes were washed three times in wash buffer before incubation with the secondary antibody (anti-rabbit IgG1-HRP; Cell Signaling Technology) at 1:2500 in 0.5% milk/wash buffer for 2 hours at room temperature. The membranes were washed again before the bands were detected with SuperSignal West Dura Extended Duration Chemiluminescent substrate (ThermoFisher Scientific) and were visualized using the Fluorochem M Digital Imager (Protein Simple, San Jose, Calif.).
# MBT-2 cells were obtained from the Japanese Collection of Research Bioresources Cell Bank and were maintained in DMEM supplemented with 10% FBS. MC38 cells were obtained from the NCI. 4T1 cells were obtained from ATCC and maintained in RPMI media supplemented with 10% FBS. For MBT-2 experiments, 5×10^5 MBT-2 cells were inoculated subcutaneously into the right hind flank of 6- to 8-week-old C3H mice or athymic nude mice (Charles River Laboratories, Wilmington, Mass.). For MC38 studies, 12-week old female C57BL/6 mice were inoculated with brei of MC38 tumors (in-vivo passage 6) into the right hind flank. For 4T1 studies, 7.5×10^5 4 T1 cells were inoculated subcutaneously into the right hind flank of 6- to 8-week-old female BALB/c mice or athymic nude mice (Charles River Laboratories). Mice were randomized by tumor volume with n=10-12 per group. Compound 1 was dosed orally twice a day (BID) continuously from the start to the end of study. In the MC38 study, anti-programmed death ligand 1 (PD-L1) (BE0101, Bio X Cell, West Lebanon, NH) was dosed intraperitoneally at 15 mg/kg twice a week. […] Mice were monitored for tumor growth and overt tolerability over the course of the experiment. […]
structure (smiles),measurement,setting,value
"CC(C)C(=O)N1CCC(c2cc(-c3ccc(NC(=O)c4cn(C(C)C)c(=O)n(-c5ccccn5)c4=O)cc3)c3c(N)ncnn23)CC1 [Compound 1, N-(4-(4-Amino-7-(1-isobutyrylpiperidin-4-yl)pyrrolo[1,2-f][1,2,4]triazin-5-yl)phenyl)-1-isopropyl-2,4-dioxo-3-(pyridin-2-yl)-1,2,3,4-tetrahydropyrimidine-5-carboxamide]",GI50,[1],16 ± 11 nM
same,TGI,"CTG-2041 tumors; CTG-2041, equivalent activity at 10, 30 and 100 mg/kg BID oral, FIG. 9A",95%
same,GAS6 levels in tumors (Western blot),"CTG-2041 tumors; CTG-2041 tumors, FIG. 9D",increased
same,pAKT in tumors (Western blot),"CTG-2041 tumors; CTG-2041 tumors, FIG. 9D",inhibited
same,pAXL and pMER in tumors (Western blot),"CTG-2041 tumors; CTG-2041 tumors, FIG. 9D",inhibited
same,total MER levels in tumors (Western blot),"CTG-2041 tumors; CTG-2041 tumors, FIG. 9D",increased
